Results taken from patent publication US11040028B2, “Penicinotam derivative, preparation method and use thereof” (OCEAN UNIVERSITY OF CHINA, priority 2017, dated 2021).

Columns and labels:
Assay type in all cases: cell-based
BHK-21 cells = assay: Anti-fibrosis activity test: inhibition of BHK-21 cell proliferation (CCK-8); settings: Mesocricetus auratus, BHK-21, 48 h
Summary of the method: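 Cells plated 2×10^4 cells/mL; 24 h attach; compound dilutions, triplicate, 48 h, 37° C/5% CO2; CCK-8 2 h; A450; IR = (1−Ai/Ao)×100%; IC50 by curve fit.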

NF-κB = assay: Immunological activity test: inhibition of NF-κB activity; settings: initial concentration of 30 μM; a/b isomers given as first/second symbol; read-out: IC50 (μM), inhibitory activity against NF-κB
Summary of the method: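 IC50 values were derived after initial screening of compounds at 30 μM for NF-κB inhibitory activity, with parthenolide serving as the positive control.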

[1] = system: human lung fibroblasts HFL1; assay: Anti-fibrosis activity test: inhibition of proliferation of human lung fibroblasts HFL1 (CCK-8); settings: Homo sapiens, HFL1, 48 h
Summary of the method: (§1)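 Proliferation read by CCK-8 (2 h, A450) after 48 h compound treatment of cells plated at 2×10^4 cells/mL and allowed 24 h attachment, triplicate per concentration. Inhibition rate derived from absorbance relative to untreated blank, with IC50 fitted; pirfenidone as positive control.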

[2] = system: human embryonic lung fibroblast IMR-90; assay: Anti-fibrosis activity test: inhibition of proliferation of human embryonic lung fibroblast IMR-90 (CCK-8)
Summary of the method: as §1

[3] = system: human dermal fibroblasts CCC-ESF-1; assay: Anti-fibrosis activity test: inhibition of proliferation of human dermal fibroblasts CCC-ESF-1 (CCK-8); settings: Fibroblast
Summary of the method: as §1

[4] = system: human hepatic stellate cells LX-2; assay: Anti-fibrosis activity test: inhibition of proliferation of human hepatic stellate cells LX-2 (CCK-8); settings: Homo sapiens, 48 h
Summary of the method: as §1

[5] = system: mouse macrophages (RAW264.7); assay: Lipopolysaccharide-induced NO secretion in macrophages (Griess); settings: Mus musculus, RAW264.7, 24 h, RAW264.7, LPS 1 μg/ml, a/b isomers given as first/second symbol, read-out: IC50 (μM), inhibition of lipopolysaccharide-induced NO secretion in macrophages
Summary of the method: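 Percent inhibition of NO release was measured by Griess absorbance at 548 nm in supernatants. Cells were mouse RAW264.7 macrophages in 10% FBS DMEM, treated with graded compound concentrations and activated by LPS (1 μg/ml) for 24 h.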

[6] = system: human fibrosarcoma cells HT-1080; assay: Anti-fibrosis activity test: inhibition of proliferation of human fibrosarcoma cells HT-1080 (CCK-8); settings: Homo sapiens, HT-1080, 48 h
Summary of the method: as §1

[7] = system: cardiac fibroblast RAT-iCell-C002; assay: Anti-fibrosis activity test: inhibition of proliferation of cardiac fibroblast RAT-iCell-C002 (CCK-8); settings: Cardiac fibroblast, 48 h
Summary of the method: as §1

[8] = CCK-8, 48 hours after administration
[9] = human lung fibroblasts HFL1, CCK-8, 48 hours
[10] = human embryonic lung fibroblast IMR-90, CCK-8, 48 hours
[11] = human dermal fibroblasts CCC-ESF-1, CCK-8, 48 hours
[12] = human hepatic stellate cells LX-2, CCK-8, 48 hours
[13] = human fibrosarcoma cells HT-1080, CCK-8, 48 hours
[14] = cardiac fibroblast RAT-iCell-C002, CCK-8, 48 hours
[15] = Homo sapiens, IMR-90 cells, 48 h, CCK-8
[16] = Homo sapiens, CCC-ESF-1 cells, 48 h, CCK-8

SMILES	IC50 (BHK-21 cells; [8])	IC50 (NF-κB)	IC50 [1, 9]	IC50 [2, 10]	IC50 [3, 11]	IC50 [4, 12]	IC50 [5]	IC50 [6, 13]	IC50 [7, 14]	IC50 (BHK-21 cells; 48 h, CCK-8)	IC50 ([1]; HFL1 cells, 48 h, CCK-8)	IC50 [2, 15]	IC50 [3, 16]	IC50 ([4]; LX-2, 48 h, LX-2 cells, CCK-8)	IC50 ([6]; HT-1080 cells, 48 h, CCK-8)	IC50 ([7]; RAT-iCell-C002 cells, CCK-8)
COCCOc1c2c(nc3ccccc13)-c1cccn1C2=O [Compound 652b, 9-(2-methoxyethoxy)-10H-pyrrolizino[1,2-b]quinolin-10-one]	0.05 to 5 mM	1 to 10 µM	0.05 to 5 mM	0.05 to 5 mM	0.05 to 5 mM	0.05 to 5 mM	1 to 10 µM	0.05 to 5 mM	0.05 to 5 mM	–	–	–	–	–	–	–
COc1cccc(COc2c3c(nc4ccccc24)-c2cccn2C3=O)c1 [Compound 610b, 9-((3-methoxybenzyl)oxy)-10H-pyrrolizino[1,2-b]quinolin-10-one]	0.05 to 5 mM	1 to 10 µM	0.05 to 5 mM	0.05 to 5 mM	0.05 to 5 mM	0.05 to 5 mM	1 to 10 µM	0.05 to 5 mM	0.05 to 5 mM	–	–	–	–	–	–	–
N#Cc1cccc2c(=O)c3c([nH]c12)-c1cccn1C3=O [Compound 447a, 9,10-Dioxo-4,10-dihydro-9H-pyrrolizino[1,2-b]quinoline-5-carbonitrile]	0.05 to 5 mM	0.1 to 1 µM	0.05 to 5 mM	0.05 to 5 mM	0.05 to 5 mM	0.05 to 5 mM	0.1 to 1 µM	< 0.05 mM	0.05 to 5 mM	–	–	–	–	–	–	–
O=C1c2c(n(Cc3ccc(F)cc3)c3ccccc3c2=O)-c2cccn21 [Compound 588a, 4-(4-Fluorobenzyl)-9H-pyrrolizino[1,2-b]quinoline-9,10(4H)-dione]	0.05 to 5 mM	1 to 10 µM	0.05 to 5 mM	0.05 to 5 mM	0.05 to 5 mM	0.05 to 5 mM	1 to 10 µM	0.05 to 5 mM	0.05 to 5 mM	–	–	–	–	–	–	–
O=C(O)COc1c2c(nc3ccc(C(F)(F)F)cc13)-c1cccn1C2=O [Compound 279b, 2-((10-Oxo-7-(trifluoromethyl)-10H-pyrrolizino[1,2-b]quinolin-9-yl)oxy)acetic acid]	0.05 to 5 mM	1 to 10 µM	0.05 to 5 mM	0.05 to 5 mM	0.05 to 5 mM	0.05 to 5 mM	0.1 to 1 µM	0.05 to 5 mM	0.05 to 5 mM	–	–	–	–	–	–	–
O=C1c2c(nc3ccccc3c2OCc2ccccc2I)-c2cccn21 [Compound 576b, 9-((2-iodobenzyl)oxy)-10H-pyrrolizino[1,2-b]quinolin-10-one]	0.05 to 5 mM	1 to 10 µM	0.05 to 5 mM	0.05 to 5 mM	0.05 to 5 mM	0.05 to 5 mM	1 to 10 µM	0.05 to 5 mM	0.05 to 5 mM	–	–	–	–	–	–	–
O=C1c2c(nc3ccccc3c2OCc2cc(C(F)(F)F)cc(C(F)(F)F)c2)-c2cccn21 [Compound 607b, 9-((3,5-bis(trifluoromethyl)benzyl)oxy)-10H-pyrrolizino[1,2-b]quinolin-10-one]	0.05 to 5 mM	1 to 10 µM	0.05 to 5 mM	0.05 to 5 mM	0.05 to 5 mM	0.05 to 5 mM	1 to 10 µM	0.05 to 5 mM	0.05 to 5 mM	–	–	–	–	–	–	–
O=C1c2c(nc3ccccc3c2OCCCCN2CCNCC2)-c2cccn21 [Compound 670b, 9-(4-(piperazin-1-yl)butoxy)-10H-pyrrolizino[1,2-b]quinolin-10-one]	–	1 to 10 µM	–	–	–	–	1 to 10 µM	–	–	0.05 to 5 mM	0.05 to 5 mM	0.05 to 5 mM	0.05 to 5 mM	0.05 to 5 mM	0.05 to 5 mM	0.05 to 5 mM
O=C1c2c(n(Cc3ccc(Br)cc3)c3ccccc3c2=O)-c2cccn21 [Compound 594a, 4-(4-Bromobenzyl)-9H-pyrrolizino[1,2-b]quinoline-9,10(4H)-dione]	< 0.05 mM	0.1 to 1 µM	0.05 to 5 mM	0.05 to 5 mM	0.05 to 5 mM	0.05 to 5 mM	1 to 10 µM	0.05 to 5 mM	0.05 to 5 mM	–	–	–	–	–	–	–
O=C(O)Cn1c2c(c(=O)c3cc(C(F)(F)F)ccc31)C(=O)n1cccc1-2 [Compound 279a, 2-(9,10-dioxo-7-(trifluoromethyl)-9H-pyrrolizino[1,2-b]quinolin-4(10H)-yl)acetic acid]	0.05 to 5 mM	1 to 10 µM	0.05 to 5 mM	0.05 to 5 mM	0.05 to 5 mM	0.05 to 5 mM	1 to 10 µM	0.05 to 5 mM	0.05 to 5 mM	–	–	–	–	–	–	–
Cc1ccc(COc2c3c(nc4ccccc24)-c2cccn2C3=O)cc1 [Compound 604b, 9-((4-methylbenzyl)oxy)-10H-pyrrolizino[1,2-b]quinolin-10-one]	0.05 to 5 mM	1 to 10 µM	0.05 to 5 mM	0.05 to 5 mM	0.05 to 5 mM	0.05 to 5 mM	1 to 10 µM	0.05 to 5 mM	0.05 to 5 mM	–	–	–	–	–	–	–
N#Cc1ccc(F)cc1COc1c2c(nc3ccccc13)-c1cccn1C2=O [Compound 616b, 4-fluoro-2-(((10-oxo-10H-pyrrolizino[1,2-b]quinolin-9-yl)oxy)methyl)benzonitrile]	0.05 to 5 mM	10 to 50 µM	0.05 to 5 mM	0.05 to 5 mM	0.05 to 5 mM	0.05 to 5 mM	1 to 10 µM	0.05 to 5 mM	0.05 to 5 mM	–	–	–	–	–	–	–
Cc1ccn2c1-c1c(nc3ccccc3c1O)C2=O [Compound 797b, 11-hydroxy-1-methyl-5H-pyrrolizino[2,1-b]quinolin-5-one]	–	0.1 to 1 µM	–	–	–	–	1 to 10 µM	–	–	0.05 to 5 mM	0.05 to 5 mM	0.05 to 5 mM	0.05 to 5 mM	0.05 to 5 mM	0.05 to 5 mM	0.05 to 5 mM
C#CCn1c2c(c(=O)c3ccccc31)C(=O)n1cccc1-2 [Compound 7a, 4-(Prop-2-yn-1-yl)-9H-pyrrolizino[1,2-b]quinoline-9,10(4H)-dione]	< 0.05 mM	1 to 10 µM	0.05 to 5 mM	0.05 to 5 mM	< 0.05 mM	0.05 to 5 mM	0.1 to 1 µM	0.05 to 5 mM	0.05 to 5 mM	–	–	–	–	–	–	–
Cc1cc(C)c2nc3c(c(O)c2c1)C(=O)n1cccc1-3 [Compound 750b, 9-hydroxy-5,7-dimethyl-10H-pyrrolizino[1,2-b]quinolin-10-one]	–	1 to 10 µM	–	–	–	–	1 to 10 µM	–	–	0.05 to 5 mM	0.05 to 5 mM	0.05 to 5 mM	0.05 to 5 mM	0.05 to 5 mM	0.05 to 5 mM	0.05 to 5 mM
O=C1c2c(nc3ccccc3c2OC2CC2)-c2cccn21 [Compound 673b, 9-cyclopropoxy-10H-pyrrolizino[1,2-b]quinolin-10-one]	–	1 to 10 µM	–	–	–	–	1 to 10 µM	–	–	0.05 to 5 mM	0.05 to 5 mM	0.05 to 5 mM	0.05 to 5 mM	0.05 to 5 mM	0.05 to 5 mM	0.05 to 5 mM
O=C(Cn1c2c(c(=O)c3ccccc31)C(=O)n1cccc1-2)c1ccc(Cl)cc1 [Compound 90a, 4-(2-(4-Chlorophenyl)-2-oxoethyl)-9H-pyrrolizino[1,2-b]quinoline-9,10(4H)-dione]	0.05 to 5 mM	1 to 10 µM	0.05 to 5 mM	0.05 to 5 mM	0.05 to 5 mM	< 0.05 mM	0.1 to 1 µM	0.05 to 5 mM	0.05 to 5 mM	–	–	–	–	–	–	–
O=C1c2c(nc3ccccc3c2OCCCO)-c2cccn21 [Compound 16b, 9-(3-hydroxypropoxy)-10H-pyrrolizino[1,2-b]quinolin-10-one]	0.05 to 5 mM	1 to 10 µM	0.05 to 5 mM	0.05 to 5 mM	0.05 to 5 mM	0.05 to 5 mM	1 to 10 µM	0.05 to 5 mM	0.05 to 5 mM	–	–	–	–	–	–	–
O=C1c2c(n(Cc3ccc(Cl)cc3)c3ccccc3c2=O)-c2cccn21 [Compound 589a, 4-(4-Chlorobenzyl)-9H-pyrrolizino[1,2-b]quinoline-9,10(4H)-dione]	< 0.05 mM	1 to 10 µM	0.05 to 5 mM	0.05 to 5 mM	0.05 to 5 mM	< 0.05 mM	1 to 10 µM	0.05 to 5 mM	0.05 to 5 mM	–	–	–	–	–	–	–
